From PMC2994747, “Molecular Characterization of c-Abl/c-Src Kinase Inhibitors Targeted against Murine Tumour Progenitor Cells that Express Stem Cell Markers” (PLoS ONE, 2010)
Read-outs that look alike come from different tables or passages of the source.

Columns and labels:
[1] = tested on: GammaA3; test: MTS cell viability assay; format: cell-based, mouse
Experimental: (§1) Three human and eleven murine cancer cell lines were used. The human NSCLC cell line A549 (ACC 107) and the human colorectal carcinoma cell line CaCo2 (ACC 169) were obtained from Deutsche Sammlung von Mikroorganismen und Zellkulturen (DSMZ, Braunschweig, Germany). The human hepatocellular carcinoma cell line HepG2 (HB-8065) was obtained from American Type Culture Collection (Manassas, VA, USA). The 11 murine NSCLC cell lines were established as described recently. Cells were grown in monolayer cultures in DMEM containing 10% foetal calf serum, 4 mmol/l L-glutamine and 2% Penicillin/Streptomycin at 37°C in a humidified atmosphere of 95% air and 5% CO2.
(§2) Cell culture viability was monitored by CellTiter96® AQueous One Solution Cell Proliferation Assay (Promega GmbH, Mannheim, Germany). The cells were seeded in triplicates in 96-well microtitre plates and treated with the dual kinase inhibitors or vehicle (0.2% DMSO). After 24 h or 96 h of treatment the MTS tetrazolium reagent was added to the cells and incubated for 1 h. Absorbance at 490 nm was assayed with a Victor3 Wallac 1420 Multilabel counter (PerkinElmer, Waltham, MA, USA).

[2] = tested on: BetaD5; test: MTS cell viability assay; format: cell-based, mouse
Experimental: as §1, §2

[3] = tested on: GammaD12; test: MTS cell viability assay; format: cell-based, mouse
Experimental: as §1, §2

[4] = tested on: A2C12; test: MTS cell viability assay; format: cell-based, mouse
Experimental: as §1, §2

[5] = tested on: CaCo2; test: Cell cycle analysis by flow cytometry; format: cell-based, human; details: IC50 concentration, 96 h
Experimental: (§3) CycleTEST™ PLUS DNA Reagent Kit (Becton Dickinson GmbH, Heidelberg, Germany) for cell cycle analysis was used, according to the instructions of the manufacturer. Briefly, the cells were harvested with trypsin, washed with PBS, and resuspended in CycleTEST Buffer. The cells were centrifuged and resuspended in solution A. After incubation for 10 min at room temperature, solution B was added and incubated. After adding solution C, the samples were incubated at 4°C protected from light. The samples were stored on ice and protected from light until analysis by FACScan flow cytometer (Becton Dickinson GmbH, Heidelberg, Germany).

[6] = tested on: A549; test: Cell cycle analysis by flow cytometry; format: cell-based, human; details: IC50 concentration, 96 h
Experimental: as §3

[7] = tested on: CaCo2; test: MTS cell viability assay; format: cell-based, human
Experimental: as §1, §2

[8] = tested on: A549; test: MTS cell viability assay; format: cell-based, human
Experimental: as §1, §2

[9] = tested on: HepG2; test: MTS cell viability assay; format: cell-based, human
Experimental: as §1, §2

[10] = tested on: GammaA3; test: Cell cycle analysis by flow cytometry; format: cell-based, mouse; details: IC50 concentration; for Cells in G1 phase / Cells in G2 phase / Cells in S phase: 96 h
Experimental: as §3

[11] = tested on: BetaD5; test: Cell cycle analysis by flow cytometry; format: cell-based, mouse; details: IC50 concentration, 96 h
Experimental: as §3

[12] = tested on: GammaD12; test: Cell cycle analysis by flow cytometry; format: cell-based, mouse; details: IC50 concentration, 96 h
Experimental: as §3

[13] = tested on: A2C12; test: Cell cycle analysis by flow cytometry; format: cell-based, mouse; details: IC50 concentration, 96 h
Experimental: as §3

[14] = tested on: HepG2; test: Cell cycle analysis by flow cytometry; format: cell-based, human; details: IC50 concentration, 96 h
Experimental: as §3

[15] = 24 h, read-out: Calculated IC50 after single treatment for 24 h
[16] = 96 h, read-out: Calculated IC50 after daily treatment for 96 h
[17] = MTS, 24 h, read-out: Calculated IC50 after single treatment for 24 h
[18] = MTS, 96 h, read-out: Calculated IC50 after daily treatment for 96 h
[19] = daily treatment 96 h, vs DMSO 0.2%
[20] = Mus musculus, 24 h, read-out: Calculated IC50 after single treatment for 24 h
[21] = Mus musculus, 96 h, read-out: Calculated IC50 after daily treatment for 96 h

| Compound | IC50 [7, 15] [µM] | IC50 [7, 16] [µM] | IC50 [8, 15] [µM] | IC50 [8, 16] [µM] | IC50 [9, 15] [µM] | IC50 [9, 16] [µM] | IC50 [1, 15] [µM] | IC50 [1, 16] [µM] | IC50 [2, 15] [µM] | IC50 [2, 16] [µM] | IC50 [3, 17] [µM] | IC50 [3, 18] [µM] | IC50 [4, 15] [µM] | IC50 [4, 16] [µM] | Cells in G1 phase [6] [%] | Cells in G2 phase [6] [%] | Cells in S phase [6] [%] | Cells in G1 phase [11] [%] | Cells in G2 phase [11] [%] | Cells in S phase [11] [%] | other results |
| --- | --- | --- | --- | --- | --- | --- | --- | --- | --- | --- | --- | --- | --- | --- | --- | --- | --- | --- | --- | --- | --- |
| CCCCNc1nc(SCC)nc2c1cnn2CC(Cl)c1ccccc1 (stereo not drawn) [Si20] | 56.2 ± 2 | 6.5 ± 0.1 | 25.1 ± 2.6 | 13.6 ± 1.5 | 56.2 ± 2.1 | 8.1 ± 2.8 | 21.5 ± 2.3 | 15.5 ± 2.3 | 27 ± 7.9 | 10.4 | 17.1 ± 1.5 | 11.3 ± 1.2 | 28.1 ± 4.6 | 11.3 ± 0.9 | 78.9 | 4.3 | 16.7 | 63.2 | 24.2 | 12.6 | Cells in G1 phase [5]: 61.9%; Cells in G2 phase [5]: 5.2%; Cells in S phase [5]: 32.9%; Cells in G1 phase [14]: 61.5%; Cells in G2 phase [14]: 7.3%; Cells in S phase [14]: 31.2%; Cells in G1 phase [10]: 51.9%; Cells in G2 phase [10]: 17.5%; Cells in S phase [10]: 30.8%; Cells in G1 phase [12]: 31.4%; Cells in G2 phase [12]: 9.7%; Cells in S phase [12]: 58.9%; Cells in G1 phase [13]: 55.6%; Cells in G2 phase [13]: 11.3%; Cells in S phase [13]: 33.1% |
| CCN(CC)c1nc(SC)nc2c1cnn2CC(Cl)c1ccccc1 (stereo not drawn) [Si27] | > 100 | > 20 | > 100 | > 20 | > 100 | 16.2 ± 6.3 | > 100 | > 20 | > 100 | > 20 | > 100 | > 20 | > 100 | > 20 |  |  |  |  |  |  |  |
| Cc1nc(Nc2ncc(C(=O)Nc3c(C)cccc3Cl)s2)cc(N2CCN(CCO)CC2)n1 [Dasatinib, reference compound] |  |  |  | 5.2 ± 2.2 |  |  |  |  |  |  |  |  |  |  |  |  |  |  |  |  | IC50 [1, 20]: 1.18 ± 0.1 µM; IC50 [1, 21]: 0.32 ± 0.07 µM; IC50 [2, 20]: 5.2 ± 0.6 µM; IC50 [2, 21]: 0.84 ± 0.05 µM; IC50 ([3]; Mus musculus, 96 h, read-out: IC50 (MTS) after treatment for 96 h): 0.8 µM; IC50 ([3]; Mus musculus, MTS, 24 h, read-out: Calculated IC50 after single treatment for 24 h): 2.6 ± 1 µM; IC50 [4, 20]: 9.8 ± 1.5 µM; IC50 [4, 21]: 10.3 ± 1.6 µM; IC50 ([7]; Homo sapiens, Caco-2, 24 h, read-out: Calculated IC50 after single treatment for 24 h): > 100 µM; IC50 ([7]; Homo sapiens, Caco-2, 96 h, read-out: Calculated IC50 after daily treatment for 96 h): 0.44 ± 0.25 µM; IC50 ([8]; Homo sapiens, A549, 24 h, 24 h, read-out: Calculated IC50 after single treatment for 24 h): 39.8 ± 5.8 µM; IC50 ([8]; Homo sapiens, A549, 96 h, 96 h, read-out: Calculated IC50 after daily treatment for 96 h): 5 µM; IC50 ([9]; Homo sapiens, 24 h, read-out: Calculated IC50 after single treatment for 24 h): 26.2 ± 2.8 µM; IC50 ([9]; Homo sapiens, 96 h, read-out: Calculated IC50 after daily treatment for 96 h): 5 ± 0.82 µM |
| CSc1nc(NCc2ccccc2)c2cnn(CC(Br)c3ccccc3)c2n1 (stereo not drawn) [Si81] | 72.9 ± 6.4 | 7.5 ± 0.2 | > 100 | 11.2 ± 1 | 72.9 ± 6.4 | 22.6 ± 4.3 | 26.8 ± 1.5 | > 20 | 20.6 ± 4 | 19.5 ± 3.1 | 17.4 ± 2.6 | 14.1 ± 0.2 | 30.8 ± 2.5 | 12.1 ± 2.1 | 62.8 | 6.3 | 30.9 | 61.9 | 22 | 16.1 | Cells in G1 phase [5]: 58.7%; Cells in G2 phase [5]: 6.9%; Cells in S phase [5]: 34.3%; Cells in G1 phase [14]: 58.8%; Cells in G2 phase [14]: 9.5%; Cells in S phase [14]: 31.7%; Cells in G1 phase [12]: 33.3%; Cells in G2 phase [12]: 8.8%; Cells in S phase [12]: 57.9%; Cells in G1 phase [13]: 66.7%; Cells in G2 phase [13]: 10.7%; Cells in S phase [13]: 22.6% |

The remaining compounds from weak to strong by IC50 [8, 16], led by results:

| IC50 [7, 15] [µM] | IC50 [7, 16] [µM] | IC50 [8, 15] [µM] | IC50 [8, 16] [µM] | IC50 [9, 15] [µM] | IC50 [9, 16] [µM] | Compound | IC50 [1, 15] [µM] | IC50 [1, 16] [µM] | IC50 [2, 15] [µM] | IC50 [2, 16] [µM] | IC50 [3, 17] [µM] | IC50 [3, 18] [µM] | IC50 [4, 15] [µM] | IC50 [4, 16] [µM] | Cells in G1 phase [6] [%] | Cells in G2 phase [6] [%] | Cells in S phase [6] [%] | Cells in G1 phase [11] [%] | Cells in G2 phase [11] [%] | Cells in S phase [11] [%] | other results |
| --- | --- | --- | --- | --- | --- | --- | --- | --- | --- | --- | --- | --- | --- | --- | --- | --- | --- | --- | --- | --- | --- |
| 82.1 ± 5.3 | 7.6 ± 0.3 | 96 ± 35.1 | 10.2 ± 0.5 | 82.1 ± 5.3 | > 100 | CSc1nc(NCc2ccccc2)c2cnn(CC(Cl)c3ccc(Cl)cc3)c2n1 (stereo not drawn) [Si70] | 40.7 ± 6.2 | 13.5 ± 1.1 | 31 ± 5.1 | 11 ± 0.3 | 21.6 ± 1.6 | 7.9 ± 3.4 | 68.5 ± 16.8 | 9.2 ± 0.3 | 77.3 | 4.1 | 18.6 | 56.6 | 25.7 | 17.7 | Cells in G1 phase [5]: 65.9%; Cells in G2 phase [5]: 6.8%; Cells in S phase [5]: 27.3%; Cells in G1 phase [10]: 89%; Cells in G2 phase [10]: 8.2%; Cells in S phase [10]: 2.8%; Decrease in the S-phase compared to the vehicle treatment [10, 19]: up to 91%; Increase in G0/G1 compared to the vehicle treatment [10, 19]: up to 92%; Cells in G1 phase [12]: 43.7%; Cells in G2 phase [12]: 7.7%; Cells in S phase [12]: 48.7%; Cells in G1 phase [13]: 63.3%; Cells in G2 phase [13]: 10.1%; Cells in S phase [13]: 26.6% |
| 40.3 ± 0.9 | 5.7 ± 0.4 | 22.7 ± 0.6 | 8.2 ± 0.5 | 40.3 ± 0.9 | 9.1 ± 1.7 | CSc1nc(NCc2ccccc2)c2cnn(CC(Cl)c3ccc(F)cc3)c2n1 (stereo not drawn) [Si65] | 31.9 ± 1.6 | 9.9 ± 1.4 | 22.6 ± 1.9 | 10.6 ± 0.1 | 21 ± 1 | 7.1 ± 0.6 | 25.9 ± 4.3 | 8.6 ± 1.3 | 67.2 | 6.3 | 26.6 | 58.4 | 24.7 | 16.9 | Cells in G1 phase [14]: 62.7%; Cells in G2 phase [14]: 8.5%; Cells in S phase [14]: 28.1%; Cells in G1 phase [10]: 68%; Cells in G2 phase [10]: 17.3%; Cells in S phase [10]: 14.6%; Cells in G1 phase [12]: 33%; Cells in G2 phase [12]: 8.7%; Cells in S phase [12]: 58.4%; Cells in G1 phase [13]: 73.4%; Cells in G2 phase [13]: 10.4%; Cells in S phase [13]: 16.2% |
